How the values were obtained:
HIV-protease = details: cited from earlier work
virus replication = details: in words; cited from earlier work
[1] = test system: CD4-lymphocytes in the blood; details: AIDS patients, in words; cited from earlier work
[2] = in vivo, po; cited from earlier work
[3] = in vivo; cited from earlier work
HIV-1-protease = target: T1, HIV-1-protease (Human immunodeficiency virus type 1 group M subtype B, UniProt P04585); test: HIV-1-protease inhibition with icosapeptide substrate […] (HPLC); format: biochemical; details: pH 6.0, 37° C., 1 hour, icosapeptide 122 μM
T1 construct: made in house
Description: The inhibitory action of the compounds of formula I on the proteolytic activity of HIV-1-protease can be shown, for example, analogously to the method described by A. D. Richards et al., J. Biol. Chem. 265(14), 7733-7736 (1990). In that method the inhibition of the action of HIV-1-protease (prepared in accordance with S. Billich et al., J. Biol. Chem. 263(34), 17905-17908 (1990)) is measured in the presence of the icosapeptide […] SEQ ID NO:1, a synthetic substrate of HIV-1-protease, prepared by peptide synthesis in accordance with known procedures, see J. Schneider et al., Cell 54, 363-368 (1988)), which contains as substrate analogue one of the cleavage sites of the gag-precursor protein (natural substrate of HIV-1-protease). That substrate and its cleavage products are analysed by high performance liquid chromatography (HPLC).
The test compound is dissolved in dimethyl sulfoxide. The enzymatic test is carried out by adding suitable dilutions of the inhibitor in 20 mM β-morpholinoethanesulfonic acid (MES) buffer pH 6.0 to the test mixture. That mixture consists of the above-mentioned iscosapeptide (122 μM) in 20 mM MES-buffer pH 6.0. 100 μl are used per test batch. The reaction is started by the addition of […] of HIV-1-protease solution and is stopped after one hours incubation at 37° C. by the addition of 10 μl of 0.3M HClO4. After centrifugation of the sample at 10,000×g for 5 minutes, […] of the resulting supernatant are applied to a 125×4.6 mm Nucleosil® C18-5m-HPLC column (reversed-phase material supplied by Macherey & Nagel, Duren, FRG, based on silica gel that has been charged with C18 alkyl chains). The uncleaved icosapeptide and its cleavage products are eluted from the column by means of the following gradient: 100% eluant 1→50% eluant 1+50% eluant 2 (eluant 1: 10% acetonitrile, 90% H2 O, 0.1% trifluoroacetic acid (TFA); eluant 2: 75% acetonitrile, 25% H2 O, 0.08% TFA) for 15 minutes, throughflow rate 1 ml/min. The quantification of the eluted peptide fragments is carried out by measuring the peak height of the cleavage product at 215 nm.
In the test system described above (with […]), SEQ ID NO:1 the following IC50 values are obtained for Examples 1 to 5: […]

HIV-1/MN in MT-2-cells = test: Protection of HIV-1/MN-infected MT-2-cells, reverse transcriptase activity; format: cell-based; details: Human immunodeficiency virus 1, MT2, 96 h; 90% reduction of RT activity; HIV-1-infected MT-2-cells; 4 days; read-out: ED90 (the source's name)
Source text: In a further test it can be shown that compounds of formula I protect cells normally infected by HIV from such an infection or at least slow down such an infection. For this test, MT-2-cells infected with HIV-1/MN are used. MT-2-cells have been transformed with a continuous producer of HTLV-1 (a virus causing leukaemia); they are therefore especially sensitive to the cytopathogenic effect of HIV. MT-2-cells can be obtained via the AIDS Research and Reference Reagent Program, Division of AIDS, NIAID, NIH from Dr. Douglas Richman (see J. Biol. Chem. 263, 5870-5875 (1988) and also Science 229, 563-566 (1985)). The MT-2-cells are cultured in RPMI 1640-medium (Gibco, Scotland; RPMI comprises an amino acid mixture without glutamine) supplemented with 10% heat-inactivated foetal calf serum, glutamine and standard antibiotics. In all cases the cells, and also the virus stock solution used for the infection (HIV-1/MN), are free of mycoplasms. The virus stock solution is prepared as a cell culture supernatant of the permanently infected cell line H9/HIV-1/MN, which can likewise be obtained via the AIDS Research and Reference Program, Division of AIDS, NIAID, NIH from Dr. Robert Gallo (see also Science 224, 500-503 (1984) and Science 226, 1165-1170 (1984)). The titre of the HIV-1/MN virus stock solution (determined by titration onto MT-2-cells) is 4.2×10^5 TCID50/ml (TCID50=Tissue Culture Infective Dose=dose that infects 50% of the MT-2-cells). In order to measure the infection-inhibiting action of the compounds of formula I, 50 μl of the test compound in question in culture medium and 2800 TCID50 of HIV-1/MN in 100 μl of culture medium are added to 2×10^4 exponentially growing MT-2-cells which have been applied in 50 μl of culture medium to 96-well microtitre plates (having a round base). After 4 days' incubation (at 37° C., 5% CO2) a 10 μl sample of the supernatant is taken from each well, transferred to a further 96-well microtitre plate and (if necessary) stored at -20° C. In order to measure the activity of the virus-associated reverse transcriptase, 30 μl of reverse transcriptase (RT) cocktail are added to each sample. The reverse transcriptase cocktail consists of 50 mM Tris (α,α,α-tris(hydroxymethyl)methylamine, Ultra pur, Merck, Germany) pH 7.8; 75 mM KCl, 2 mM dithiothreitol, 5 mM MgCl2; 0.1% Nonidet P40 (detergent; Sigma, Switzerland), 0.8 mM EDTA, 10 μg/ml Poly-A (Pharmacia, Uppsala, Sweden) and 0.16 μg/ml oligo(T) (=pdT(12-18), Pharmacia, Uppsala, Sweden) as "template primer"--if desired, the mixture is filtered through a […] Acrodisc filter (Gelman Sciences Inc., Ann Arbor, USA). It is stored at -20° C. Prior to the test, 0.1% (v/v) [alpha-^32 P]dTTP is added to aliquots of the solution in order to establish a final radioactivity of 10 μCi/ml.
After mixing, the plate is incubated for 2 hours at 37° C. 5 μl of the reaction mixture are transferred to DE81 paper (Whatman, one filter per well). The dried filters are washed three times for 5 minutes with 300 mM NaCl/25 mM trisodium citrate and then once with ethanol and again dried in the air. The radioactivity on the filters is measured in a Matrix Packard 96-well counter (Packard, Zurich, Switzerland). The ED90 values are calculated and are defined as the concentration of the test compound that reduces the RT activity by 90% in comparison with a control without test compound. […]

in vivo = details: mouse, po, 120 mg/kg
Description: In order to determine their pharmacokinetics, the compounds of formula I are dissolved in dimethyl sulfoxide (DMSO) in a concentration of 240 mg/ml. The resulting solutions are diluted 1:20 (v/v) with 20% (w/v) aqueous hydroxypropyl-β-cyclodextrin solution in order to obtain a concentration of the test compound in question of 12 mg/ml. The resulting solution is treated briefly with ultrasound and administered orally to female BALB/c mice (Bomholt-garden, Copenhagen, Denmark) by artificial tube feeding at a dose of 120 mg/kg. At fixed times (for example 30, 60, 90, 120 min) after administration, mice are sacrificed and the plasma stored in heparinised test tubes. The blood is centrifuged (12,000×g, 5 min) and the plasma removed. The plasma is deproteinised by the addition of an equal volume of acetonitrile. The mixture is mixed using a vortex mixer and left to stand at room temperature for 20 to 30 minutes. The precipitate is pelleted by centrifugation (12,000×g, 5 min), and the concentration of the test compound is determined by reversed phase high performance liquid chromatography (HPLC).
The HPLC analysis of the samples obtained in accordance with the method described above is carried out on a 125×4.6 mm Nucleosil® C18 -column (reversed-phase material supplied by Macherey & Nagel, Duren, Germany, based on silica gel derivatised with carbon radicals having 18 carbon atoms), using a 2 cm long preliminary column of the same column material. The test is carried out with the following linear acetonitrile/water gradient (in each case in the presence of 0.05% trifluoroacetic acid): 20% acetonitrile to 100% acetonitrile for 20 min; then 5 min 100% acetonitrile; then returning to the initial conditions for 1 min and 4 min reequilibration. The flow rate is 1 ml/min. […] The test compound is detected by UV absorption measurement at 255 nm. Peaks are identified by the retention time and the UV spectrum between 205 and 400 nm. The concentrations are determined by the external standard method; the peak heights are obtained for determining the concentrations by comparison with standard curves.

| SMILES | inhibitory action against HIV-protease in vitro (HIV-protease) | virus replication in cell experiments (virus replication) | surrogate-marker (titre of the CD4-lymphocytes) [1] | blood levels in rodents [2] | blood levels in humans [3] | IC50 (HIV-1-protease) [µM] | EC90 (HIV-1/MN in MT-2-cells) [µM] | concentration at 0.5 h (in vivo) [nM] | concentration at 1.5 h (in vivo) [nM] |
| --- | --- | --- | --- | --- | --- | --- | --- | --- | --- |
| CC(C)(C)NC(=O)[C@@H]1C[C@@H]2CCCC[C@@H]2CN1C[C@@H](O)[C@H](Cc1ccccc1)NC(=O)[C@H](CC(N)=O)NC(=O)c1ccc2ccccc2n1 [Ro 31-8959, N-tert-butyl-decahydro-2-[2(R)-hydroxy-4-phenyl-3(S)-[[N-2-quinolyl-carbonyl-L-asparaginyl]amino]butyl]-(4aS,8aS)-isoquinoline-3(S)-carboxamide] | exhibits an inhibitory action | suppression of virus replication | initial positive effects | blood levels that are still usable | usable blood levels | – | – | – | – |
| COC(=O)N[C@H](C(=O)N[C@@H](Cc1ccccc1)[C@@H](O)CN(Cc1ccc(-c2ccccc2)cc1)NC(=O)[C@@H](NC(=O)OC)C(C)(C)C)C(C)C [Example 1, 1-(4-Biphenylyl)-2-N-(N-methoxycarbonyl-(L)-tert-leucyl)-amino-4(S)-hydroxy-5(S)-N-(N-methoxycarbonyl-(L)-valyl)-amino-6-phenyl-2-azahexane] | – | – | – | – | – | 0.051 | 3 | 6330 | 5350 |
| COC(=O)N[C@H](C(=O)N[C@@H](Cc1ccccc1)[C@@H](O)CN(Cc1ccc(-c2ccccc2)cc1)NC(=O)[C@@H](NC(=O)OC)C(C)(C)C)C(C)(C)C [Example 5, 1-(4-Biphenylyl)-4(S)-hydroxy-5(S)-2,5-bis[N-(N-methoxycarbonyl-(L)-tert-leucyl)-amino]-6-phenyl-2-azahexane] | – | – | – | – | – | 0.058 | 3 | 5530 | 4910 |
| COC(=O)N[C@H](C(=O)NN(Cc1ccc(-c2ccccc2)cc1)C[C@H](O)[C@H](Cc1ccccc1)NC(=O)[C@@H](NC(=O)OC)C(C)(C)C)C(C)C [Example 2, 1-(4-Biphenylyl)-2-N-(N-methoxycarbonyl-(L)-valinyl)-amino-4(S)-hydroxy-5(S)-N-(N-methoxycarbonyl-(L)-tert-leucyl)-amino-6-phenyl-2-azahexane] | – | – | – | – | – | 0.085 | 3 | 640 | 1110 |
| COC(=O)N[C@H](C(=O)NN(Cc1ccc(-c2ccccc2C#N)cc1)C[C@H](O)[C@H](Cc1ccccc1)NC(=O)[C@@H](NC(=O)OC)C(C)(C)C)C(C)C [Example 3, 1-[4-(2-Cyanophenyl)phenyl]-2-N-(N-methoxycarbonyl-(L)-valyl)-amino-4(S)-hydroxy-5(S)-N-(N-methoxycarbonyl-(L)-tert-leucyl)-amino-6-phenyl-2-azahexane] | – | – | – | – | – | 0.038 | 10 | 1420 | 1950 |
| COC(=O)N[C@H](C(=O)N[C@@H](Cc1ccccc1)[C@@H](O)CN(Cc1ccc(-c2ccccc2C#N)cc1)NC(=O)[C@@H](NC(=O)OC)C(C)(C)C)C(C)C [Example 4, 1-[4-(2-Cyanophenyl)phenyl)-2-N-(N-methoxycarbonyl-(L)-tert-leucyl)-amino-4(S)-hydroxy-5(S)-N-(N-methoxycarbonyl-(L)-valyl)-amino-6-phenyl-2-azahexane] | – | – | – | – | – | 0.043 | 3 | 1680 | 1930 |

From patent US6225345A, “Azahexane derivatives as substrate isosters of retroviral asparate proteases” (Novartis AG, priority 1995, dated 2001)
